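Compound exposure: 48 hours, 5 concentrations, 96-well plates. TGI marks complete inhibition of growth.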
What was measured:
Test in all cases: inhibition of tumour cell growth, NCI panel, 48 h
[1] = test system: A498 renal
[2] = test system: MCF7 breast
[3] = test system: SK-MEL-2 melanoma
[4] = test system: MDA-N
[5] = test system: SN12C renal
[6] = test system: K-562 leukemia
[7] = test system: COLO 205 colon
[8] = test system: NCI-H460 lung
[9] = test system: U251 CNS
[10] = test system: KM12 colon
[11] = test system: HOP-62 NSCLC
[12] = test system: SF-268 CNS
[13] = test system: HT29 colon
[14] = test system: OVCAR-8 ovarian
[15] = test system: MOLT-4 leukemia
[16] = test system: OVCAR-4 ovarian
[17] = test system: HCT-15 colon
[18] = test system: IGROV1 ovarian
[19] = test system: HCT-116 colon
[20] = test system: SF-295 CNS
[21] = test system: OVCAR-5 ovarian
[22] = test system: HOP-92 NSCLC
[23] = test system: SF-539 CNS
[24] = test system: SK-MEL-5 melanoma
[25] = test system: SNB-19 CNS
[26] = test system: HL-60(TB) leukemia
[27] = test system: SNB-75 CNS
[28] = test system: SR leukemia
[29] = test system: NCI/ADR-RES ovarian
[30] = test system: SW-620 colon
[31] = test system: ACHN renal
[32] = test system: HS 578T breast
[33] = test system: NCI-H522 lung
[34] = test system: NCI-H23 lung
[35] = test system: UO-31 renal
[36] = test system: MDA-MB-231 breast
[37] = test system: T-47D breast
[38] = test system: UACC-257 melanoma
[39] = test system: PC-3 prostate
[40] = test system: HCC-2998 colon
[41] = test system: SK-OV-3 ovarian
[42] = test system: TK-10 renal
[43] = test system: EKVX NSCLC
[44] = test system: MDA-MB-435
[45] = test system: CAKI-1 renal
[46] = test system: RPMI-8226 leukemia
[47] = test system: LOX IMVI melanoma
[48] = test system: MALME-3M melanoma
[49] = test system: CCRF-CEM leukemia
[50] = test system: A549 NSCLC
[51] = test system: BT-549 breast
[52] = test system: DU-145 prostate
[53] = test system: M14 melanoma
[54] = test system: 786-0 renal
[55] = test system: NCI-H226 lung
[56] = test system: SK-MEL-28 melanoma
[57] = test system: OVCAR-3 ovarian

Work on `O=C(O)COc1cc(-c2ccccc2)nc2ccccc12` yielded a TGI [1] of over 100 µM, a TGI [2] of over 100 µM and a TGI [3] of over 100 µM. The TGI [4] was 85.7 µM, the TGI [5] was over 100 µM and the TGI [6] was over 100 µM. The TGI [7] was over 100 µM, the TGI [8] was over 100 µM and the TGI [9] was over 100 µM. For the same compound, the TGI [10] was over 100 µM, the TGI [11] was over 100 µM and the TGI [12] was over 100 µM. The TGI [13] was over 100 µM, the TGI [14] was over 100 µM and the TGI [15] was over 100 µM. The TGI [16] was over 100 µM, the TGI [17] was over 100 µM and the TGI [18] was over 100 µM. It also gave a TGI [19] of over 100 µM, a TGI [20] of over 100 µM and a TGI [21] of over 100 µM. It also gave a TGI [22] of over 100 µM, a TGI [23] of over 100 µM and a TGI [24] of over 100 µM. The TGI [25] was over 100 µM, the TGI [26] was over 100 µM and the TGI [27] was over 100 µM. The TGI [28] was over 100 µM, the TGI [29] was over 100 µM and the TGI [30] was over 100 µM. The TGI [31] was over 100 µM, the TGI [32] was over 100 µM and the TGI [33] was over 100 µM. For the same compound, the TGI [34] was over 100 µM, the TGI [35] was over 100 µM and the TGI [36] was over 100 µM. For the same compound, the TGI [37] was over 100 µM, the TGI [38] was over 100 µM and the TGI [39] was over 100 µM. It also gave a TGI [40] of over 100 µM, a TGI [41] of over 100 µM and a TGI [42] of over 100 µM. The TGI [43] was over 100 µM, the TGI [44] was 73.8 µM and the TGI [45] was over 100 µM. The TGI [46] was over 100 µM, the TGI [47] was over 100 µM and the TGI [48] was over 100 µM. For the same compound, the TGI [49] was over 100 µM, the TGI [50] was over 100 µM and the TGI [51] was over 100 µM. It also gave a TGI [52] of over 100 µM, a TGI [53] of over 100 µM and a TGI [54] of over 100 µM. It also gave a TGI [55] of over 100 µM, a TGI [56] of over 100 µM and a TGI [57] of over 100 µM.

Reference: PubChem BioAssay (NCI)
